# Calls of active or inactive are those of the source. No cut-off for these calls is given here.
# Columns and labels:
# MCF7 [1] = assay: Antiproliferative activity against ER-positive human MCF7 cells assessed as inhibition of cell growth incubated for 48 hrs by CCK8 assay; type: functional, cell-based; settings: MCF7, 48 h
# MCF7 [2] = assay: Potency index, ratio of raloxifene IC50 to test compound IC50 for antiproliferative activity against ER-positive human MCF7 cells; type: functional
# Ishikawa [3] = assay: Antiproliferative activity against ER-positive human Ishikawa cells assessed as inhibition of cell growth incubated for 48 hrs by CCK8 assay; type: functional, cell-based
# MDA-MB-231 = assay: Antiproliferative activity against ER-negative human MDA-MB-231 cells assessed as inhibition of cell growth incubated for 48 hrs by CCK8 assay; type: functional, cell-based; settings: MDA-MB-231, 48 h
# Ishikawa [4] = assay: Induction of cell proliferation in human ishikawa cells at 156 to 5000 nM measured after 2 days; type: cell-based; settings: 48 h, 5 µM, dose 156-5000 nM, time 2 day
# MCF7 [5] = assay: Induction of cell cycle arrest in human MCF7 cells assessed as accumulation at S phase at 5 uM by propidium iodide staining based flow cytometric analysis (reference value: 63.32%); type: functional
# [6] = target: T1, Estrogen receptor (Homo sapiens) (UniProt P03372); assay: Covalent antagonist activity at ERalpha in human MCF7 cells assessed as reduction in E2-stimulated TFF1 gene expression at 1.25 to 10 uM incubated for 24 hrs by RT-PCR analysis; type: cell-based; settings: filed as antagonist, dose 1.25-10 µM
# T1 sequence (whole entry): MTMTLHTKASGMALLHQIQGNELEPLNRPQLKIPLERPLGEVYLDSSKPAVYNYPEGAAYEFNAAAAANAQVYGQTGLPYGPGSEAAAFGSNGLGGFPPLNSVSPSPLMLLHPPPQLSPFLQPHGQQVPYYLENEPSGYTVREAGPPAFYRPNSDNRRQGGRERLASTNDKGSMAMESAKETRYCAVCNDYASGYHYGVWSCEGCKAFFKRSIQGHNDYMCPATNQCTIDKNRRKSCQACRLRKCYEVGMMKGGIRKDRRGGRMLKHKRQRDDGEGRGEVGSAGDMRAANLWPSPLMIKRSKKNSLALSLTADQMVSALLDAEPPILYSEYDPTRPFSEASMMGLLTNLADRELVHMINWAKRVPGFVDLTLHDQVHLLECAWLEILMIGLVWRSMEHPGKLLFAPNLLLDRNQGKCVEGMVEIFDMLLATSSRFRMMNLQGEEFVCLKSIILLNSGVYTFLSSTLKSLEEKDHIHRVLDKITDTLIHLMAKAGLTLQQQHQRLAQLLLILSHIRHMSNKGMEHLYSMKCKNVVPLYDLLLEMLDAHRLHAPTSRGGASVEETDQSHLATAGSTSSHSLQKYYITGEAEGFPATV
# MCF7 [7] = assay: Induction of apoptosis in human MCF7 cells assessed as late apoptotic cells at 1 uM by AnnexinV-FITC/propidium iodide staining based flow cytometry (reference value: 0.7%); type: functional
# MCF7 [8] = assay: Induction of apoptosis in human MCF7 cells assessed as viable cells at 1 uM by AnnexinV-FITC/propidium iodide staining based flow cytometry (reference value: 96.1%); type: functional; settings: read-out: Activity
# MCF7 [9] = assay: Induction of cell cycle arrest in human MCF7 cells assessed as accumulation at G2/M phase at 5 uM by propidium iodide staining based flow cytometric analysis (reference value: 12.24%); type: functional
# MCF7 [10] = assay: Induction of cell cycle arrest in human MCF7 cells assessed as accumulation at S phase at 1 uM by propidium iodide staining based flow cytometric analysis (reference value: 63.32%); type: functional
# MCF7 [11] = assay: Induction of apoptosis in human MCF7 cells assessed as viable cells at 10 uM by AnnexinV-FITC/propidium iodide staining based flow cytometry (reference value: 96.1%); type: functional; settings: read-out: Activity
# MCF7 [12] = assay: Induction of cell cycle arrest in human MCF7 cells assessed as accumulation at G0/G1 phase at 5 uM by propidium iodide staining based flow cytometric analysis (reference value: 24.44%); type: functional
# MCF7 [13] = assay: Induction of apoptosis in human MCF7 cells assessed as necrotic cells at 10 uM by AnnexinV-FITC/propidium iodide staining based flow cytometry (reference value: 0.4%); type: functional
# MCF7 [14] = assay: Induction of apoptosis in human MCF7 cells assessed as late apoptotic cells at 5 uM by AnnexinV-FITC/propidium iodide staining based flow cytometry (reference value: 0.7%); type: functional
# MCF7 [15] = assay: Induction of apoptosis in human MCF7 cells assessed as late apoptotic cells at 10 uM by AnnexinV-FITC/propidium iodide staining based flow cytometry (reference value: 0.7%); type: functional
# MCF7 [16] = assay: Induction of apoptosis in human MCF7 cells assessed as viable cells at 5 uM by AnnexinV-FITC/propidium iodide staining based flow cytometry (reference value: 96.1%); type: functional; settings: read-out: Activity
# MCF7 [17] = assay: Downregulation of ERalpha protein expression in human MCF7 cells at 5 uM incubated for 24 hrs by DAPI staining based immunofluorescence microscopy; type: functional, cell-based
# MCF7 [18] = assay: Induction of cell cycle arrest in human MCF7 cells assessed as accumulation at G0/G1 phase at 10 uM by propidium iodide staining based flow cytometric analysis (reference value: 24.44%); type: functional
# [19] = target: T1, Estrogen receptor (Homo sapiens); assay: Antagonist activity at ERalpha receptor in human ishikawa cells assessed as suppression of E2-stimulated PGR expression at 1.25 to 10 uM by RT-PCR analysis; type: cell-based; settings: filed as antagonist, dose 1.25-10 µM
# MCF7 [20] = assay: Induction of cell cycle arrest in human MCF7 cells assessed as accumulation at S phase at 10 uM by propidium iodide staining based flow cytometric analysis (reference value: 63.32%); type: functional
# MCF7 [21] = assay: Induction of apoptosis in human MCF7 cells assessed as early apoptotic cells at 5 uM by AnnexinV-FITC/propidium iodide staining based flow cytometry (reference value: 0.8%); type: functional
# MCF7 [22] = assay: Induction of cell cycle arrest in human MCF7 cells assessed as accumulation at G2/M phase at 1 uM by propidium iodide staining based flow cytometric analysis (reference value: 12.24%); type: functional
# MCF7 [23] = assay: Induction of apoptosis in human MCF7 cells assessed as necrotic cells at 1 uM by AnnexinV-FITC/propidium iodide staining based flow cytometry (reference value: 0.4%); type: functional
# MCF7 [24] = assay: Induction of cell cycle arrest in human MCF7 cells assessed as accumulation at G0/G1 phase at 1 uM by propidium iodide staining based flow cytometric analysis (reference value: 24.44%); type: functional
# MCF7 [25] = assay: Induction of apoptosis in human MCF7 cells assessed as early apoptotic cells at 10 uM by AnnexinV-FITC/propidium iodide staining based flow cytometry (reference value: 0.8%); type: functional
# [26] = target: T1, Estrogen receptor (Homo sapiens); assay: Covalent antagonist activity at ERalpha in human MCF7 cells assessed as reduction in E2-stimulated GREB1 gene expression at 1.25 to 10 uM incubated for 24 hrs by RT-PCR analysis; type: cell-based; settings: filed as antagonist, dose 1.25-10 µM
# MCF7 [27] = assay: Induction of apoptosis in human MCF7 cells assessed as early apoptotic cells at 1 uM by AnnexinV-FITC/propidium iodide staining based flow cytometry (reference value: 0.8%); type: functional
# MCF7 [28] = assay: Induction of cell cycle arrest in human MCF7 cells assessed as accumulation at G2/M phase at 10 uM by propidium iodide staining based flow cytometric analysis (reference value: 12.24%); type: functional
# MCF7 [29] = assay: Induction of apoptosis in human MCF7 cells assessed as necrotic cells at 5 uM by AnnexinV-FITC/propidium iodide staining based flow cytometry (reference value: 0.4%); type: functional
smiles,measurement,setting,value
O=C(c1ccc(OC2CN(C/C=C/C(=O)N3CCOCC3)C2)cc1)c1c(-c2ccc(O)cc2)sc2cc(O)ccc12,IC50,MCF7 [1],5.72 µM
same,Ratio IC50,MCF7 [2],4
same,IC50,Ishikawa [3],18.4 µM
CN(C)C(=O)/C=C/CN1CC(Oc2ccc(C(=O)c3c(-c4ccc(O)cc4)sc4cc(O)ccc34)cc2)C1,IC50,MCF7 [1],29.3 µM
same,IC50,Ishikawa [3],29.6 µM
O=C(c1ccc(OC2CN(C/C=C/C(=O)N3CCC3)C2)cc1)c1c(-c2ccc(O)cc2)sc2cc(O)ccc12,IC50,MCF7 [1],23.3 µM
same,IC50,Ishikawa [3],25.8 µM
C=CC(=O)N1CC(Oc2ccc(C(=O)c3c(-c4ccc(O)cc4)sc4cc(O)ccc34)cc2)C1,IC50,MCF7 [1],31.3 µM
same,IC50,Ishikawa [3],16.6 µM
C/C=C/C(=O)NCCOc1ccc(C(=O)c2c(-c3ccc(O)cc3)sc3cc(O)ccc23)cc1,IC50,MCF7 [1],> 50 µM
same,IC50,Ishikawa [3],> 100 µM
O=C(c1ccc(OCCNC/C=C/C(=O)N2CCCC2)cc1)c1c(-c2ccc(O)cc2)sc2cc(O)ccc12,IC50,MCF7 [1],24.2 µM
same,IC50,Ishikawa [3],46.1 µM
O=C(c1ccc(OCCN2CCCCC2)cc1)c1c(-c2ccc(O)cc2)sc2cc(O)ccc12 [RALOXIFENE],IC50,MCF7 [1],21.9 µM
same,IC50,Ishikawa [3],28.4 µM
O=C(c1ccc(OCCNC/C=C/C(=O)N2CCOCC2)cc1)c1c(-c2ccc(O)cc2)sc2cc(O)ccc12,IC50,MDA-MB-231,> 50 µM
same,IC50,MCF7 [1],8.41 µM
same,IC50,Ishikawa [3],24.9 µM
CC/C(=C(\c1ccc(O)cc1)c1ccc(OCCN(C)C)cc1)c1ccccc1 [AFIMOXIFENE],Activity,Ishikawa [4],Toxic
O=C(c1ccc(OCCNC/C=C/C(=O)N2CCCCC2)cc1)c1c(-c2ccc(O)cc2)sc2cc(O)ccc12,IC50,MCF7 [1],11.5 µM
same,IC50,Ishikawa [3],6.34 µM
C=C(C)C(=O)N1CC(Oc2ccc(C(=O)c3c(-c4ccc(O)cc4)sc4cc(O)ccc34)cc2)C1,IC50,MCF7 [1],23.1 µM
same,IC50,Ishikawa [3],22.6 µM
CC/C(=C(\c1ccccc1)c1ccc(OCCN(C)C)cc1)c1ccccc1 [TAMOXIFEN],IC50,Ishikawa [3],14.6 µM
O=C(c1ccc(OC2CN(C/C=C/C(=O)N3CCCCC3)C2)cc1)c1c(-c2ccc(O)cc2)sc2cc(O)ccc12,Activity,MCF7 [5],54.23%
same,Activity,Ishikawa [4],Non-Toxic
same,inhibition,[6],Active
same,Activity,MCF7 [7],3.4%
same,viability at 1 µM,MCF7 [8],87.1%
same,Activity,MCF7 [9],12.93%
same,Activity,MCF7 [10],57.31%
same,viability at 10 µM,MCF7 [11],66.3%
same,Activity,MCF7 [12],32.84%
same,Activity,MCF7 [13],1.3%
same,Activity,MCF7 [14],9.7%
same,Activity,MCF7 [15],15.8%
same,IC50,MDA-MB-231,> 50 µM
same,viability at 5 µM,MCF7 [16],77.4%
same,inhibition,MCF7 [17],Active
same,Activity,MCF7 [18],38.85%
same,inhibition,[19],Active
same,Activity,MCF7 [20],49.43%
same,Activity,MCF7 [21],11.5%
same,Activity,MCF7 [22],14.1%
same,IC50,MCF7 [1],1.31 µM
same,Activity,MCF7 [23],1.2%
same,Activity,MCF7 [24],28.53%
same,Activity,MCF7 [25],16.6%
same,inhibition,[26],Active
same,Activity,MCF7 [27],8.3%
same,Ratio IC50,MCF7 [2],20
same,Activity,MCF7 [28],11.72%
same,IC50,Ishikawa [3],10.3 µM
same,Activity,MCF7 [29],1.4%
CN(C)C(=O)/C=C/CNCCOc1ccc(C(=O)c2c(-c3ccc(O)cc3)sc3cc(O)ccc23)cc1,IC50,MCF7 [1],> 50 µM
same,IC50,Ishikawa [3],48.4 µM
CNC(=O)/C=C/CNCCOc1ccc(C(=O)c2c(-c3ccc(O)cc3)sc3cc(O)ccc23)cc1,IC50,MDA-MB-231,> 50 µM
same,IC50,MCF7 [1],13.1 µM
same,IC50,Ishikawa [3],50.9 µM
O=C(c1ccc(OCCNC/C=C/C(=O)N2CCC2)cc1)c1c(-c2ccc(O)cc2)sc2cc(O)ccc12,IC50,MCF7 [1],24.2 µM
same,IC50,Ishikawa [3],29.6 µM
C/C=C/C(=O)N1CC(Oc2ccc(C(=O)c3c(-c4ccc(O)cc4)sc4cc(O)ccc34)cc2)C1,IC50,MCF7 [1],23.7 µM
same,IC50,Ishikawa [3],22.2 µM
O=C(c1ccc(OC2CN(CCCC(=O)N3CCCCC3)C2)cc1)c1c(-c2ccc(O)cc2)sc2cc(O)ccc12,IC50,MDA-MB-231,> 50 µM
same,IC50,MCF7 [1],> 50 µM
same,IC50,Ishikawa [3],> 50 µM
CNC(=O)/C=C/CN1CC(Oc2ccc(C(=O)c3c(-c4ccc(O)cc4)sc4cc(O)ccc34)cc2)C1,IC50,MDA-MB-231,> 50 µM
same,IC50,MCF7 [1],11.3 µM
same,IC50,Ishikawa [3],45 µM
COCCNC(=O)/C=C/CNCCOc1ccc(C(=O)c2c(-c3ccc(O)cc3)sc3cc(O)ccc23)cc1,IC50,MCF7 [1],42.8 µM
same,IC50,Ishikawa [3],55.3 µM
C=CC(=O)N1CCN(c2ccc(C(=O)c3c(-c4ccc(O)cc4)sc4cc(O)ccc34)cc2)CC1,IC50,MCF7 [1],> 50 µM
same,IC50,Ishikawa [3],> 100 µM
C=CC(=O)NCCOc1ccc(C(=O)c2c(-c3ccc(O)cc3)sc3cc(O)ccc23)cc1,IC50,MCF7 [1],37.1 µM
same,IC50,Ishikawa [3],> 100 µM
C=C(C)C(=O)NCCOc1ccc(C(=O)c2c(-c3ccc(O)cc3)sc3cc(O)ccc23)cc1,IC50,MCF7 [1],28.7 µM
same,IC50,Ishikawa [3],29.2 µM
C=C(C)C(=O)N1CCN(c2ccc(C(=O)c3c(-c4ccc(O)cc4)sc4cc(O)ccc34)cc2)CC1,IC50,MCF7 [1],> 50 µM
same,IC50,Ishikawa [3],> 100 µM
